Six compounds from patent US5159002A, “Method for purifying dermostatin A and dermostatin B” (Xechem Inc., priority 1990, dated 1992) can be followed below.

Entries after “also recorded” stand apart in the source; their conditions may differ.

The subject of series [1] is H9 cells. The series is described as follows: Survival/viability of HIV-infected H9 cells (trypan blue exclusion), % control. Particulars: for viability at 0.01 µg/mL / viability at 0.1 µg/mL / viability at 1 µg/mL / viability at 10 µg/mL / viability at 5 µg/mL: Homo sapiens, H9, 96 h, read-out: Cell Survival (% Control); for viability of cells in the presence of HIV (in words): in vitro.

Series [2] relates to HIV virus. Particulars: for inhibition of viral replication (in words): about 1 μg/ml; for activity against HIV / inhibition of viral replication (in words): in vitro.
Series [3] is described as follows: Solubility. Format: physicochemical. Conditions: Tables I-III.
Series [4] has as its system target cells. The series is described as follows: Toxicity to the cells. The format is cell-based.

On to `C[C@@H]1[C@H](O)[C@@H](C)/C=C/C=C/CC/C=C/C=C/C=C/C=C/[C@H](O[C@@H]2O[C@H](C)[C@@H](O)[C@H](N)[C@@H]2O)C[C@@H]2O[C@](O)(C[C@@H](O)C[C@@H](O)[C@H](O)CC[C@@H](O)C[C@@H](O)CC(=O)O[C@H]1C)C[C@H](O)[C@H]2C(=O)O` [Amphotericin A, reference compound], for which the “Cell Survival (% Control)” value in series [1] (Table IV, conc. not printed (line between 10 and 0.1), added with HIV, 4 days) was 75 % Control.

With `C[C@@H]1[C@H](O)[C@@H](C)/C=C/C=C/C=C/C=C/C=C/C=C/C=C/[C@H](O[C@@H]2O[C@H](C)[C@@H](O)[C@H](N)[C@@H]2O)C[C@@H]2O[C@](O)(C[C@@H](O)C[C@@H](O)[C@H](O)CC[C@@H](O)C[C@@H](O)CC(=O)O[C@H]1C)C[C@H](O)[C@H]2C(=O)O` [Amphotericin B, reference compound], in series [1], the viability at 0.01 µg/mL came to 13%, the viability at 0.1 µg/mL came out at 11%, the viability at 1 µg/mL came out at 33% and the viability at 10 µg/mL was 73%.

Regarding `CC(C)C1OC(=O)/C=C/C=C/C=C/C=C/C=C/C=C/CC(O)C(C)C(O)CC(O)CC(O)CC(O)CC(O)CC(O)CC(O)CC(O)/C=C/C1C` (stereo not drawn) [Dermostatin A], in series [1], the viability at 0.01 µg/mL was 0%, the viability at 0.1 µg/mL amounted to 18%, the viability at 1 µg/mL came out at 92% and the viability at 5 µg/mL stood at 99%. For the same compound, in series [1], the “viability of cells in the presence of HIV (in words)” value was “improve the viability of lymphocyte cells in the presence of HIV; also recorded: protective effect”. In addition, in series [2], the “inhibition of viral replication (in words)” value is on record as “high levels of inhibition to viral replication have been achieved” and the “activity against HIV / inhibition of viral replication (in words)” value (from here on “activity against HIV / inhibition”) is reported as “inhibit the ability of the HIV virus to replicate within the lymphocyte after penetration by the virus”. For the same compound, in series [3], the Solubility result is “Soluble in MeOH, DMSO, DMF; also recorded: Insoluble in H2 O, pet ether, hexane”.

Turning to `CCC(C)C1OC(=O)/C=C/C=C/C=C/C=C/C=C/C=C/CC(O)C(C)C(O)CC(O)CC(O)CC(O)CC(O)CC(O)CC(O)CC(O)/C=C/C1C` (stereo not drawn) [Dermostatin B], in series [1], the viability at 0.01 µg/mL is 0%, the viability at 0.1 µg/mL was found to be 0%, the viability at 1 µg/mL was 87% and the viability at 5 µg/mL was found to be 97%. Further, the “viability of cells in the presence of HIV (in words)” value in series [1] is recorded as “improve the viability of lymphocyte cells in the presence of HIV; also recorded: protective effect”. Moreover, in series [2], the “inhibition of viral replication (in words)” value is recorded as “high levels of inhibition to viral replication have been achieved” and the “activity against HIV / inhibition” value is on record as “inhibit the ability of the HIV virus to replicate within the lymphocyte after penetration by the virus”. Besides, the Solubility result in series [3] was “Soluble in MeOH, DMSO, DMF; also recorded: Insoluble in H2 O, pet ether, hexane”.

For `CCCCC[C@@H](O)[C@H]1C(=O)O[C@H](C)[C@@H](O)/C=C/C=C/C=C/C=C/C=C(\C)[C@@H](O)C[C@H](O)C[C@H](O)C[C@H](O)C[C@H](O)C[C@H](O)C[C@@H]1O` [Filipin, reference compound], in series [1], the viability at 0.1 µg/mL was determined as 48%, the viability at 1 µg/mL came to 51% and the viability at 10 µg/mL was 49%. Also, the “activity against HIV / inhibition” value in series [2] was “not active against HIV”.

Regarding Candicidin, the “toxicity to the cells (in words)” value in series [4] was “toxic to the cells; also recorded: its own cytotoxic effects takes its toll on the target cells”. Further, the “effect against HIV infection at noncytotoxic doses (in words)” value in series [2] is reported as “no advantage whatsoever is seen”.
